Assay results: US12103924B2, “Mitogen-activated protein kinase kinase (MEK) degradation compounds and methods of use” (Icahn School of Medicine at Mount Sinai, priority 2020, dated 2024)

What was measured:
MEK1 and MEK2 proteins = assay: Global proteome analysis of HT-29 cells; format: cell-based, human
Description: […] […] P values were calculated from the data of two technical replicates. (A) DMSO compared to CPD-031 treated samples; (B) CPD-034 compared to CPD-031 treated samples; (C) DMSO compared to CPD-034 treated samples.
Proteins outside the significance lines were labeled with pink or purple color (FDR=0.05, S0=1). P values were calculated from the data of two technical replicates.
Protein Extraction and Digestion. Cells with indicated treatments were harvested and lysed in lysis buffer (6 M guanidine hydrochloride, 100 mM Tris-HCl pH 8.0). Sonication (5 s on, 5 s off, 2×30 s) was performed to shear genome DNA. Lysate were centrifugated for 30 min at 3,500 g at 4° C. and the supernatant were transferred to a clean tube, diluted 50% with Milli-Q H2O, then precipitated by addition of cold acetone (four times the original volume), and placed at −20° C. overnight. Precipitated proteins were brought down at 20,000 g at 4° C. for 10 min, and washed with cold acetone after discarding the supernatant. The pellet was air-dried at RT for 5 min and solubilized with 50 mM Tris-HCl (PH 8.0), 8 M urea. Protein concentration was determined (BCA assay) and protein was reduced with 5 mM DTT (dithiothreitol), alkylated with 15 mM IAA (iodoacetamide) in the dark, then diluted with buffer 25 mM Tris (pH 8.0) and 1 mM CaCl2 (three times the original volume). The final urea concentration is 2 M. Trypsin was added into protein solution with 1:100 ratio (trypsin:protein), and digested 12-16 h or overnight at RT.
Mass Spectrometry Analysis. Peptides were cleaned up by C18 stage tips and the concentration was determined (Peptide assay, 23275, Thermo Fisher Scientific). The clean peptides were dissolved in 0.1% formic acid and analyzed on a Q-Exactive HF-X coupled with an Easy nanoLC 1200 (Thermo Fisher Scientific, San Jose, CA). 0.5 μg of peptides were loaded onto an Acclain PepMap RSLC C18 Column (250 mm×75 μm ID, C18, 2 μm, Thermo Fisher Scientific). […] A linear gradient of 5 to 30% buffer B over 110 min was executed at a 300 nl/min flow rate followed a ramp to 100% B in 5 min, and 15-min wash with 100% B, where buffer A was aqueous 0.1% formic acid, and buffer B was 80% acetonitrile and 0.1% formic acid.
LC-MS experiments were performed in a data-dependent mode with full MS (externally calibrated to a mass accuracy of <5 ppm and a resolution of 60,000 at m/z 200) followed by high energy collision-activated dissociation-MS/MS of the top 20 most intense ions with a resolution of 15,000 at m/z 200. High energy collision-activated dissociation-MS/MS was used to dissociate peptides at a normalized collision energy of 27 eV in the presence of nitrogen bath gas atoms. Dynamic exclusion was 30.0 seconds. Each sample was subjected to two technical LC-MS replicates.
MS Data Analysis. Mass spectra processing and peptide identification were performed on the Andromeda search engine in MaxQuant software (Version 1.6.0.16) against the human UniProt database (UP000005640). All searches were conducted with a defined modification of cysteine carbamidomethylation, with methionine oxidation and protein amino-terminal acetylation as dynamic modifications. Peptides were confidently identified using a target-decoy approach with a peptide false discovery rate (FDR) of 1% and a protein FDR of 1%. A minimum peptide length of 7 amino acids was required, maximally two missed cleavages were allowed, initial mass deviation for precursor ion was up to 7 ppm, and the maximum allowed mass deviation for fragment ions was 0.5 Da. Data processing and statistical analysis were performed on Perseus (Version 1.6.0.7). Protein quantitation was performed on duplicate runs, and a two-sample t-test statistics was used to report statistically significant expression fold-changes.

HT-29 cells = assay: WST-8 cell viability assay, HT-29; format: cell-based; settings: WST-8 3 d serial dilutions, clonogenic assay 10 d
Description: (§1) Cells were fixed and stained by crystal violet.
(§2) Cells (2000 cells per well) were seeded into 96-well microplates. After 20 h, cells were treated with 0.1% DMSO or indicated serial dilutions of compounds in duplicate or triplicate for 3 days. Cell viability was tested using MTT (M6494, Thermo Fisher Scientific) or WST-8 reagent (CK04, Dojindo). Briefly, 12 mM MTT was prepared in PBS or WST-8 reagent was warmed up to room temperature. 20 μL MTT or CCK-8 was then added to each well and the plates were kept in incubator at 37° C. for 3 h in the dark. For the WST-8 assay, signal was obtained after the incubation. For the MTT assay, cell medium was replaced with 200 μL of DMSO after the incubation, and then cell plates were kept at 37° C. for another 30 min. Absorbance signals for MTT and WST-8 were read at 540 nm and 450 nm respectively, with 690 nm as reference performed with Infinite F PLEX plate reader (TECAN, Morrisville, NC, USA). GI50 values were analyzed using GraphPad Prism 8 from the data of at least three independent experiments.

SK-MEL-28 cells = assay: WST-8 cell viability assay, SK-MEL-28; format: cell-based; settings: WST-8 3 d serial dilutions
Description: as §1, §2

MEK1 = biological target: T1, MEK1 (Homo sapiens, UniProt Q02750); assay: HotSpot kinase inhibition assay, MEK1; format: biochemical; settings: MEK1 100 nM, ERK K52R substrate, 33P-ATP, normalized with DMSO
T1 construct: purchased Thermo Fisher Scientific PV3303
T1 sequence (Q02750 whole entry): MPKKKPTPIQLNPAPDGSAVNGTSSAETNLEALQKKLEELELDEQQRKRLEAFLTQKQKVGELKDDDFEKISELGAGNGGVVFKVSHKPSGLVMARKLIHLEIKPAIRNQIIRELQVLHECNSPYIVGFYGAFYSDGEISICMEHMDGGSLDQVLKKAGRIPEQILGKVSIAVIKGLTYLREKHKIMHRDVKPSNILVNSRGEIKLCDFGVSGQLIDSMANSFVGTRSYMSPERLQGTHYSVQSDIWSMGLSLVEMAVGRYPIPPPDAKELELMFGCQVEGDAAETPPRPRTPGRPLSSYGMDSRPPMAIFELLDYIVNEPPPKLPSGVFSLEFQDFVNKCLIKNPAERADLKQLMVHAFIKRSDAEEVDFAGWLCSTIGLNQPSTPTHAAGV

MEK2 = biological target: T2, MEK2 (Homo sapiens, UniProt P36507); assay: HotSpot kinase inhibition assay, MEK2; format: biochemical; settings: MEK2 150 nM, ERK K52R substrate, 33P-ATP, normalized with DMSO
T2 construct: purchased Thermo Fisher Scientific PV3615
T2 sequence (P36507 whole entry): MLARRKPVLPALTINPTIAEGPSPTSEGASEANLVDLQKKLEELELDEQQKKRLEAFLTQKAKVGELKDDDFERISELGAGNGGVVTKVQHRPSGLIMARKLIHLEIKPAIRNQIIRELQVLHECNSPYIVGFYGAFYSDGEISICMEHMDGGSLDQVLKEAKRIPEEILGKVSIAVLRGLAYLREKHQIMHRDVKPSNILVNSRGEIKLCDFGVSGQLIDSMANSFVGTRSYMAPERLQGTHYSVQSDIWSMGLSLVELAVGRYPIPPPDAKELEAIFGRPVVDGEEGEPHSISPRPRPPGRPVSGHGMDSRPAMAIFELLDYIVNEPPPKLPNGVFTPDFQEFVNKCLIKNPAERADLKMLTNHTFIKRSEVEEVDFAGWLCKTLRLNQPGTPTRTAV

MEK1/2 [1] = assay: Western blot of MEK1/2 protein levels in HT-29 cells; format: cell-based; settings: for MEK1 and MEK2 protein levels, time-dependent: 0.1 μM or 0.3 μM, harvested at indicated time points
Description: Compound concentrations are 0.3 μM, 1 μM and 3 μM.
(§3) The indicated protein levels were determined by Western blots.
(§4) The sample was centrifuged at 12,000 g for 10 min at 4° C. to get supernatant as cell lysate. Protein concentrations were quantified using Pierce rapid gold BCA protein assay kit.

pMEK and pERK [2] = assay: Western blot of MEK and ERK phosphorylation in HT-29 cells; format: cell-based; settings: HT-29 cells; for phosphorylation of MEK and ERK / pERK signaling, time-dependent: 0.1 μM or 0.3 μM, harvested at indicated time points
MEK1/2 [3] = assay: Western blot of MEK1/2 protein levels in SK-MEL-28 cells; settings: SK-MEL-28 cells; for MEK1 and MEK2 protein levels, time-dependent: 0.1 μM or 0.3 μM, harvested at indicated time points
Description: as §3, §4

pMEK and pERK [4] = assay: Western blot of MEK and ERK phosphorylation in SK-MEL-28 cells; settings: SK-MEL-28 cells; for phosphorylation of MEK and ERK / pERK signaling, time-dependent: 0.1 μM or 0.3 μM, harvested at indicated time points
H3122 cells = assay: WST-8 cell viability assay, H3122; format: cell-based; settings: WST-8, 3 d
Description: as §2

SUDHL1 cells = assay: WST-8 cell viability assay, SUDHL1; format: cell-based; settings: WST-8, 3 d
Description: as §2

[5] = 8 h, 0.1 μM CPD-038 or CPD-052, 0.3 μM CPD-051 or CPD-097, versus 0.1% DMSO
[6] = serial dilution, 24 h, western blot

SMILES | protein levels in the global proteomic study (MEK1 and MEK2 proteins; [5]) | growth of cells (HT-29 cells) | growth of cells (SK-MEL-28 cells) | phosphorylation of MEK and ERK / pERK signaling, time-dependent (pMEK and pERK [2]) | MEK1 and MEK2 protein levels, time-dependent (MEK1/2 [3]) | MEK1 and MEK2 protein levels, time-dependent (MEK1/2 [1]; HT-29 cells) | phosphorylation of MEK and ERK / pERK signaling, time-dependent (pMEK and pERK [4]) | also measured
Cc1ncsc1-c1ccc([C@H](C)NC(=O)[C@H]2C[C@H](O)CN2C(=O)[C@@H](NC(=O)CCCCCCCCCCCNCCCCONC(=O)c2ccc(F)c(F)c2Nc2ccc(I)cc2F)C(C)(C)C)cc1 [CPD-052, (2R,4S)-1-((S)-22-(tert-butyl)-1-(3,4-difluoro-2-((2-fluoro-4-iodophenyl)amino)phenyl)-1,20-dioxo-3-oxa-2,8,21-triazatricosan-23-oyl)-4-hydroxy-N-((S)-1-(4-(4-methylthiazol-5-yl)phenyl)ethyl)pyrrolidine-2-carboxamide] | did not significantly modulate | did not significantly suppress | did not significantly suppress |  |  |  |  | 
Cc1ncsc1-c1ccc([C@H](C)NC(=O)C2CC(O)CN2C(=O)[C@@H](NC(=O)CCCCCCCCCCNCCCONC(=O)c2ccc(F)c(F)c2Nc2ccc(I)cc2F)C(C)(C)C)cc1 (stereo in doubt) [CPD-034, (2R,4S)-1-((S)-20-(tert-butyl)-1-(3,4-difluoro-2-((2-fluoro-4-iodophenyl)amino)phenyl)-1,18-dioxo-3-oxa-2,7,19-triazahenicosan-21-oyl)-4-hydroxy-N—((S)-1-(4-(4-methylthiazol-5-yl)phenyl)ethyl)pyrrolidine-2-carboxamide] |  |  |  |  |  |  |  | MEK1 kinase activity (MEK1): inhibited; protein levels in the global proteomic study (MEK1 and MEK2 proteins; 10 h, 0.1 μM, versus 0.1% DMSO): did not significantly modulate; MEK2 kinase activity (MEK2): inhibited; MEK1 and MEK2 protein levels (MEK1/2 [1]; HT-29 cells, 0.1, 0.3, or 1 μM, 24 h): not
CN1C(=O)CCC(N2C(=O)c3ccc(NCCOCCOCCOCCOCCOCCNCCCONC(=O)c4ccc(F)c(F)c4Nc4ccc(I)cc4F)cc3C2=O)C1=O (centres unmarked) [CPD-097, 3,4-difluoro-2-((2-fluoro-4-iodophenyl)amino)-N-((1-((2-(1-methyl-2,6-dioxopiperidin-3-yl)-1,3-dioxoisoindolin-5-yl)amino)-3,6,9,12,15-pentaoxa-18-azahenicosan-21-yl)oxy)benzamide] | did not significantly modulate | did not significantly suppress | did not significantly suppress |  |  |  |  | 
O=C1CCC(N2C(=O)c3ccc(NCCOCCOCCOCCOCCOCCNCCCONC(=O)c4ccc(F)c(F)c4Nc4ccc(I)cc4F)cc3C2=O)C(=O)N1 (centres unmarked) [CPD-051, N-((1-((2-(2,6-dioxopiperidin-3-yl)-1,3-dioxoisoindolin-5-yl)amino)-3,6,9,12,15-pentaoxa-18-azahenicosan-21-yl)oxy)-3,4-difluoro-2-((2-fluoro-4-iodophenyl)amino)benzamide] | selectively degraded | significantly suppressed | significantly suppressed | inhibit | degrade | degrade | inhibit | phosphorylation of MEK and ERK proteins, concentration-dependent (pMEK and pERK [2]; [6]): inhibited; MEK1 and MEK2 protein levels, concentration-dependent (MEK1/2 [3]; [6]): concentration-dependently reduced; MEK1 and MEK2 protein levels (MEK1/2 [1]; HT-29 cells, 24 h, 0.3 μM, 1 μM and 3 μM, western blot normalized with α-tubulin): significantly degraded; MEK1 and MEK2 protein levels, concentration-dependent (MEK1/2 [1]; HT-29 cells, serial dilution, 24 h, western blot): concentration-dependently reduced; phosphorylation of MEK and ERK proteins, concentration-dependent (pMEK and pERK [4]; [6]): inhibited
Cc1ncsc1-c1ccc([C@H](C)NC(=O)[C@@H]2C[C@@H](O)CN2C(=O)[C@@H](NC(=O)CCCCCCCCCCCNCCCCONC(=O)c2ccc(F)c(F)c2Nc2ccc(I)cc2F)C(C)(C)C)cc1 [CPD-038, (2S,4R)-1-((S)-22-(tert-butyl)-1-(3,4-difluoro-2-((2-fluoro-4-iodophenyl)amino)phenyl)-1,20-dioxo-3-oxa-2,8,21-triazatricosan-23-oyl)-4-hydroxy-N—((S)-1-(4-(4-methylthiazol-5-yl)phenyl)ethyl)pyrrolidine-2-carboxamide] | selectively degraded |  |  | inhibit | degrade | degrade | inhibit | growth inhibition compared with AZ compound (H3122 cells): more potent; growth inhibition compared with AZ compound (SUDHL1 cells): more potent
